These results are taken from patent US20220378923A1, “BET DEGRADER” (KYOWA KIRIN CO., LTD., priority 2019, published 2022).

Like-named read-outs stand apart in the source and are kept apart here.

One assay relates to SU-DHL-4 cells. Nature of the assay: Inhibitory effect on cell viability in SU-DHL-4 cell line (Test Example 1). In kind it is cell-based, human. The note with it: 72 hours; for IC50: SU-DHL-4 (wild type) cells, calculated using the measurement results of test example 1, read-out: SU-DHL-4 WT IC50; for IC90: SU-DHL-4 cells, Cell Counting Kit-8, concentration showing 90% inhibition of cell viability, read-out: SU-DHL-4 Cell Viability Inhibition Rate IC90. In short, it runs like this:
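SU-DHL-4 cells were grown at 37° C. under 5% CO2 in RPMI1640 with 10 vol % heat-inactivated FBS plus penicillin/streptomycin, seeded and precultured for 18 to 25 hours, then exposed to test compound at 0.1 vol % DMSO for 72 hours. Viability was read with Cell Counting Kit-8 by absorbance at 450 nm.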

For another assay, the system named is DCAF16 KO SU-DHL-4 cells. Nature of the assay: Inhibitory effect on cell viability using SU-DHL-4 DCAF16 knock out (KO) cell line (Test Example 6). The note with it: for Activity Attenuation Ratio: (SU-DHL-4 DCAF16 KO IC50)/(SU-DHL-4 WT IC50); for IC50: DCAF16 KO SU-DHL-4 cells, 72 hours, Cell Counting Kit-8, 50% inhibition of cell viability. In kind it is cell-based, human. The method in brief:
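SU-DHL-4 DLBCL cells carrying lentiviral Cas9 plus DCAF16-targeting sgRNA (three KO strains; non-targeting control strain), seeded 2000 cells/well, pre-cultured 18–25 h, then given 9-step compound dilutions (0.1% DMSO final) for 72 h at 37° C. Viability read by CCK-8 colorimetric assay.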
Background: Formazan colour is commonly taken as a measure of viable cells.

The IC50 is the concentration that inhibits the measured activity by half. In the case of `CCC(=O)N1c2ccccc2[C@H](Nc2ccc(C(=O)NCC(=O)CNC(=O)c3ccc(N[C@@H]4C[C@H](C)N(C(=O)CC)c5ccccc54)cc3)cc2)C[C@@H]1C` [Compound 1l, N,N′-(2-Oxopropane-1,3-diyl)bis(4-{[(2S,4R)-2-methyl-1-propionyl-1,2,3,4-tetrahydroquinolin-4-yl]amino}benzamide)], the concentration for half-maximal inhibition (IC50) in the assay on SU-DHL-4 cells (Homo sapiens) is 0.03 nM; with DCAF16 KO SU-DHL-4 cells (Homo sapiens) it was 101 nM. Moreover, the “Activity Attenuation Ratio” value with DCAF16 KO SU-DHL-4 cells is 3357.

Consider `CCC(=O)N1c2ccccc2[C@H](Nc2ccc(C(=O)NCc3cn(-c4ccc(N[C@@H]5C[C@H](C)N(C(=O)CC)c6ccccc65)cc4)nn3)cc2)C[C@@H]1C` [Compound 3a, 4-{[(2S,4R)-2-Methyl-1-propionyl-1,2,3,4-tetrahydroquinolin-4-yl]amino}-N-{[1-(4-{[(2S,4R)-2-methyl-1-propionyl-1,2,3,4-tetrahydroquinolin-4-yl]amino}phenyl)-1H-1,2,3-triazol-4-yl]methyl}benzamide], for which the IC50 with SU-DHL-4 cells (Homo sapiens) was 0.025 nM; with DCAF16 KO SU-DHL-4 cells (Homo sapiens), 6.58 nM. Also, in the assay on DCAF16 KO SU-DHL-4 cells, the “Activity Attenuation Ratio” value is reported as 263.

On to `CCC(=O)N1c2ccccc2[C@H](Nc2ccc(C(=O)N3CCn4c(-c5ccc(N[C@@H]6C[C@H](C)N(C(=O)CC)c7ccccc76)cc5)cnc4C3)cc2)C[C@@H]1C` [Compound 3e, 1-[(2S,4R)-2-Methyl-4-({4-[3-(4-{[(2S,4R)-2-methyl-1-propionyl-1,2,3,4-tetrahydroquinolin-4-yl]amino}phenyl)-5,6,7,8-tetrahydroimidazo[1,2-a]pyrazine-7-carbonyl]phenyl}amino)-3,4-dihydroquinolin-1(2H)-yl]propan-1-one], for which the IC50 with SU-DHL-4 cells (Homo sapiens) is 0.1 nM; in the assay with DCAF16 KO SU-DHL-4 cells (Homo sapiens) it was 951 nM. Further, the “Activity Attenuation Ratio” value in the assay with DCAF16 KO SU-DHL-4 cells is on record as 9515.

A word on the IC90: it is the concentration needed for an effect of 90%. For `CCC(=O)N1c2ccccc2[C@H](Nc2ccc(C(=O)NCCNS(=O)(=O)c3ccc(N[C@@H]4C[C@H](C)N(C(=O)CC)c5ccccc54)cc3)cc2)C[C@@H]1C` [Compound 4d, 4-{[(2S,4R)-2-Methyl-1-propionyl-1,2,3,4-tetrahydroquinolin-4-yl]amino}-N-{2-[(4-{[(2S,4R)-2-methyl-1-propionyl-1,2,3,4-tetrahydroquinolin-4-yl]amino}phenyl)sulfonamide]ethyl}benzamide], in the assay on SU-DHL-4 cells, the IC50 is 4.18 nM and the concentration for an effect of 90% (IC90) came out at 13 nM. In the assay with DCAF16 KO SU-DHL-4 cells, the “Activity Attenuation Ratio” value was 365 and 1530 nM corresponded to half-maximal inhibition (IC50).

Take `CCC(=O)N1c2ccccc2[C@H](Nc2ccc(NC(=O)CNCC(=O)Nc3ccc(N[C@@H]4C[C@H](C)N(C(=O)CC)c5ccccc54)cc3)cc2)C[C@@H]1C` [Compound 5d, 2,2′-Azanediylbis(N-(4-(((2S,4R)-2-methyl-1-propionyl-1,2,3,4-tetrahydroquinolin-4-yl)amino)phenyl)acetamide)]: the IC50 with SU-DHL-4 cells (Homo sapiens) was 0.31 nM; in the assay with DCAF16 KO SU-DHL-4 cells (Homo sapiens) it was 167 nM. For the same compound, the “Activity Attenuation Ratio” value in the assay with DCAF16 KO SU-DHL-4 cells amounted to 546.

For `CCC(=O)N1c2ccccc2[C@H](Nc2ccc(CNCc3cn(-c4ccc(N[C@@H]5C[C@H](C)N(C(=O)CC)c6ccccc65)cc4)nn3)cc2)C[C@@H]1C` [Compound 5h, 1-((2S,4R)-2-Methyl-4-((4-((((1-(4-(((2S,4R)-2-methyl-1-propionyl-1,2,3,4-tetrahydroquinolin-4-yl)amino)phenyl)-1H-1,2,3-triazol-4-yl)methyl)amino)methyl)phenyl)amino)-3,4-dihydroquinolin-1(2H)-yl)propan-1-one], the IC50 in the assay with SU-DHL-4 cells (Homo sapiens) was 0.06 nM; in the assay on DCAF16 KO SU-DHL-4 cells (Homo sapiens), 58.4 nM. For the same compound, the “Activity Attenuation Ratio” value with DCAF16 KO SU-DHL-4 cells is reported as 942.

In the case of `CCC(=O)N1c2ccccc2[C@H](Nc2ccc(Cn3cc(C(=O)Nc4ccc(N[C@@H]5C[C@H](C)N(C(=O)CC)c6ccccc65)cc4)nn3)cc2)C[C@@H]1C` [Compound 5j, 1-(4-(((2S,4R)-2-Methyl-1-propionyl-1,2,3,4-tetrahydroquinolin-4-yl)amino)benzyl)-N-(4-(((2S,4R)-2-methyl-1-propionyl-1,2,3,4-tetrahydroquinolin-4-yl)amino)phenyl)-1H-1,2,3-triazolee-4-carboxamide], in the assay on SU-DHL-4 cells, the concentration for half-maximal inhibition (IC50) was 0.04 nM and the IC90 is 0.08 nM. In the assay with DCAF16 KO SU-DHL-4 cells, the “Activity Attenuation Ratio” value came to 941 and the half-maximal inhibitory concentration (IC50) was 37.3 nM.

As to `CCC(=O)N1c2ccccc2[C@H](Nc2ccc(Cc3cnc4n3CCN(C(=O)c3ccc(N[C@@H]5C[C@H](C)N(C(=O)CC)c6ccccc65)cc3)C4)cc2)C[C@@H]1C` [Compound 5q, 1-((2S,4R)-2-Methyl-4-((4-((7-(4-(((2S,4R)-2-methyl-1-propionyl-1,2,3,4-tetrahydroquinolin-4-yl)amino)benzoyl)-5,6,7,8-tetrahydroimidazo[1,2-a]pyrazin-3-yl)methyl)phenyl)amino)-3,4-dihydroquinolin-1(2H)-yl)propan-1-one], the 50% inhibitory concentration (IC50) with SU-DHL-4 cells (Homo sapiens) is 0.09 nM; with DCAF16 KO SU-DHL-4 cells (Homo sapiens), 622 nM. Moreover, the “Activity Attenuation Ratio” value with DCAF16 KO SU-DHL-4 cells came out at 7078.

On to `CCC(=O)N1c2ccccc2[C@H](Nc2ccc(CCCC(=O)Nc3ccc(N[C@@H]4C[C@H](C)N(C(=O)CC)c5ccccc54)cc3)cc2)C[C@@H]1C` [Compound 5r, N,4-Bis(4-(((2S,4R)-2-methyl-1-propionyl-1,2,3,4-tetrahydroquinolin-4-yl)amino)phenyl)butanamide], for which the 50% inhibitory concentration (IC50) is 0.53 nM with SU-DHL-4 cells (Homo sapiens) and 15.7 nM with DCAF16 KO SU-DHL-4 cells (Homo sapiens). The “Activity Attenuation Ratio” value with DCAF16 KO SU-DHL-4 cells is listed as 30.

With `CCC(=O)N1c2ccccc2C(Nc2ccc(NC(=O)C#CCNC(=O)c3ccc(N[C@@H]4C[C@H](C)N(C(=O)CC)c5ccccc54)cc3)cc2)CC1C` (stereo partly drawn) [Compound 6h, 4-(((2S,4R)-2-Methyl-1-propionyl-1,2,3,4-tetrahydroquinolin-4-yl)amino)-N-(4-((4-((2-methyl-1-propionyl-1,2,3,4-tetrahydroquinolin-4-yl)amino)phenyl)amino)-4-oxobut-2-yn-1-yl)benzamide], the values for the 50% inhibitory concentration (IC50) in the assay with SU-DHL-4 cells (Homo sapiens) and in the assay with DCAF16 KO SU-DHL-4 cells (Homo sapiens) were 0.003 nM and 6.8 nM, respectively. The “Activity Attenuation Ratio” value in the assay on DCAF16 KO SU-DHL-4 cells turned out to be 2250.

Take `CCC(=O)N1c2ccccc2[C@H](Nc2ccc(NC(=O)CCCC(=O)NC3CCC(N[C@@H]4C[C@H](C)N(C(=O)CC)c5ccccc54)CC3)cc2)C[C@@H]1C` (stereo partly drawn) [Compound 7o, N^1-((1R,4r)-4-(((2S,4R)-2-Methyl-1-propionyl-1,2,3,4-tetrahydroquinolin-4-yl)amino)cyclohexyl)-N^5-(4-(((2S,4R)-2-methyl-1-propionyl-1,2,3,4-tetrahydroquinolin-4-yl)amino)phenyl)glutaramide]: in the assay with SU-DHL-4 cells, the half-inhibitory concentration (IC50) was 0.53 nM and the concentration for an effect of 90% (IC90) came out at 1.15 nM. In the assay with DCAF16 KO SU-DHL-4 cells, the “Activity Attenuation Ratio” value was found to be 750 and half-maximal inhibition (IC50) was put at 397 nM.

`CCC(=O)N1c2ccccc2[C@H](Nc2ccc(NC(=O)N3CCN(C(=O)C4CCC(N[C@@H]5C[C@H](C)N(C(=O)CC)c6ccccc65)CC4)CC3)cc2)C[C@@H]1C` (stereo partly drawn) [Compound 7p, 4-((1R,4r)-4-(((2S,4R)-2-Methyl-1-propionyl-1,2,3,4-tetrahydroquinolin-4-yl)amino)cyclohexane-1-carbonyl)-N-(4-(((2S,4R)-2-methyl-1-propionyl-1,2,3,4-tetrahydroquinolin-4-yl)amino)phenyl)piperazine-1-carboxamide]: in the assay with SU-DHL-4 cells, the half-maximal inhibitory concentration (IC50) is 0.38 nM and the concentration for an effect of 90% (IC90) was 0.79 nM. In the assay on DCAF16 KO SU-DHL-4 cells, the “Activity Attenuation Ratio” value was 766 and the half-inhibitory concentration (IC50) amounted to 293 nM.

Take `CCC(=O)N1c2ccccc2[C@H](Nc2ccc(-c3nnc(CNC(=O)[C@H]4CC[C@H](N[C@@H]5C[C@H](C)N(C(=O)CC)c6ccccc65)CC4)o3)cc2)C[C@@H]1C` [Compound 7q, (1R,4R)-4-(((2S,4R)-2-Methyl-1-propionyl-1,2,3,4-tetrahydroquinolin-4-yl)amino)-N-((5-(4-(((2S,4R)-2-methyl-1-propionyl-1,2,3,4-tetrahydroquinolin-4-yl)amino)phenyl)-1,3,4-oxadiazol-2-yl)methyl)cyclohexane-1-carboxamide]: in the assay with SU-DHL-4 cells, the IC50 is 0.09 nM and the IC90 was found to be 0.24 nM. For the same compound, in the assay on DCAF16 KO SU-DHL-4 cells, the “Activity Attenuation Ratio” value amounted to 850 and the IC50 stood at 79.7 nM.

As for `CCC(=O)N1c2ccccc2[C@H](Nc2ccc(NC(=O)CNC(=O)N[C@H]3CC[C@H](N[C@@H]4C[C@H](C)N(C(=O)CC)c5ccccc54)CC3)cc2)C[C@@H]1C` [Compound 8j, 2-(3-((1R,4R)-4-(((2S,4R)-2-Methyl-1-propionyl-1,2,3,4-tetrahydroquinolin-4-yl)amino)cyclohexyl)ureido)-N-(4-(((2S,4R)-2-methyl-1-propionyl-1,2,3,4-tetrahydroquinolin-4-yl)amino)phenyl)acetamide], in the assay on SU-DHL-4 cells, the IC50 is 0.29 nM and the IC90 was 0.5 nM. Moreover, in the assay with DCAF16 KO SU-DHL-4 cells, the “Activity Attenuation Ratio” value was found to be 767 and half-maximal inhibition (IC50) required 228 nM.

Regarding `CCC(=O)N1c2ccccc2[C@H](Nc2ccc(C(=O)N3CC(C(=O)N[C@H]4CC[C@H](N[C@@H]5C[C@H](C)N(C(=O)CC)c6ccccc65)CC4)C3)cc2)C[C@@H]1C` [Compound 8r, 1-(4-(((2S,4R)-2-Methyl-1-propionyl-1,2,3,4-tetrahydroquinolin-4-yl)amino)benzoyl)-N-((1R,4R)-4-(((2S,4R)-2-methyl-1-propionyl-1,2,3,4-tetrahydroquinolin-4-yl)amino)cyclohexyl)azetidine-3-carboxamide], in the assay on SU-DHL-4 cells, the IC50 was 0.3 nM and the 90% effect concentration (IC90) was 0.47 nM. For the same compound, in the assay with DCAF16 KO SU-DHL-4 cells, the “Activity Attenuation Ratio” value is reported as 224 and inhibition was half-maximal at 67.4 nM (IC50).
